Assay results reported in patent publication US20190160049A1, “2-OXO-1,2-DIHYDROPYRIDINE-3-CARBOXAMIDE COMPOUNDS AND THEIR USE AS DUAL INHIBITORS OF PDK1/AURA” (INTERNATIONAL SOCIETY FOR DRUG DEVELOPMENT S.R.L., priority 2016, published 2019).

Tests used:
Type in all cases: cell-based
U87MG cells = assay: U87MG cell proliferation, MTS assay; conditions: 72 h
Protocol: FIG. 1 illustrates the effects of SA16 on U87MG cell proliferation of example 3 (a). U87MG cells were treated in complete medium with different concentrations of SA16 (1 nM-100 μM) for 72 h. At the end of treatment, cell proliferation was measured using the MTS assay. The data are expressed as a percentage with respect to that of untreated cells (control), which was set to 100%, and are the mean values±SEM of three independent experiments, each performed in duplicate. The significance of the differences was determined with a one-way ANOVA with Bonferroni post-test: * p<0.05, ** p<0.01, *** p<0.001 vs. control cells;
FIG. 2 illustrates the combined inhibition of PDK1 and Aurora A on U87MG cell proliferation of example 3a. U87MG cells were treated in complete medium with different concentrations of MP7, in the presence or absence of Alisertib, for 72 h. At the end of treatment, cell proliferation was measured using the MTS assay. The data are expressed as a percentage with respect to that of untreated cells (control), which was set to 100%, and are the mean values±SEM of three independent experiments, each performed in duplicate. The significance of the differences was determined with a one-way ANOVA with Bonferroni post-test: * p<0.05, *** p<0.001 vs. control cells; ## p<0.01, ### p<0.001 vs. cells treated with MP7 alone; §§ p<0.01, § § § p<0.001 vs. cells treated with Alisertib alone;
To examine the effects of SA16 on U87MG cell growth/survival, U87MG cells were incubated with different concentrations of the compound SA16 (1 nM-10 μM) for 72 h.
In parallel experiments, U87MG proliferation was assessed in the presence of a well-known PDK1 inhibitor MP7, alone or in combination with the Aurora A inhibitor, Alisertib.

[1] = test system: cancer stem cell (CSC) neurospheres obtained from U87MG cells; assay: CSC (GBM stem cell) proliferation, MTS assay; conditions: seven days
Protocol: FIG. 3 illustrates the effects of SA16 on CSC proliferation of example 3b. CSCs were treated in complete neurosphere medium with different concentrations of SA16 (1 nM-100 μM) for seven days. At the end of treatment, cell proliferation was measured using the MTS assay. The data are expressed as a percentage with respect to that of untreated cells (control), which was set to 100%, and are the mean values±SEM of three independent experiments, each performed in duplicate. IC50 value after seven days of treatment were calculated from sigmoid dose-response curve;
FIG. 4 illustrates combined inhibition of PDK1 and Aurora A on CSCs proliferation of example 3b. CSCs were treated in complete medium with different concentrations of MP7, in the presence or absence of Alisertib, for seven days. At the end of treatment, cell proliferation was measured using the MTS assay.
The data are expressed as a percentage with respect to that of untreated cells (control), which was set to 100%, and are the mean values±SEM of three independent experiments, each performed in duplicate. The significance of the differences was determined with a one-way ANOVA with Bonferroni post-test: * p<0.05, *** p<0.001 vs. control cells; ## p<0.01, ### p<0.001 vs. cells treated with MP7 alone; §§ p<0.01, § § § p<0.001 vs. cells treated with Alisertib alone;
The inventors also examined the effects of SA16 compound on cancer stem cell (CSC) neurospheres obtained from U87MG cells.

CSC neurospheres = assay: Sphere-derived cell morphology (neurosphere area, outgrowth of cellular processes); conditions: seven days; SA16 10 nM, 1 μM, 10 μM; 2.5 PIM MP7, 1.5 μM Alisertib
Protocol: FIG. 5 illustrates the effects of SA16 on sphere-derived cell morphology of Example 3c. CSCs were treated for seven days with complete NSC medium containing DMSO (control), or SA16 (10 nM, 1 μM, 10 μM) (A) Representative cell micrographs of control and SA16 (10 μM) after seven days of treatment are shown. The area of the culture plates occupied by the spheres (B) and the length of cellular processes (C) were scored after seven days of treatment. The counts represent the mean values±SEM of two independent experiments. The significance of differences was determined with a one-way ANOVA with Bonferroni post-test: * p<0.05, ** p<0.01, *** p<0.001 vs. control cells.
FIG. 7 illustrates the effects of MP7, Alisertib and of their combined treatment on sphere-derived cell morphology of example 3c. CSCs were treated for seven days with complete NSC medium containing DMSO (control), MP7 and/or alisertib (A) Representative cell micrographs after seven days of treatment are shown. The area of the culture plates occupied by the spheres (B) and the length of cellular processes (C) were scored after seven days of treatment. The counts represent the mean values±SEM of two independent experiments. The significance of differences was determined with a one-way ANOVA with Bonferroni post-test: * p<0.05, *** p<0.001 vs. control cells; ## p<0.01 vs. cells treated with MP7 alone; § p<0.05 vs. cells treated with Alisertib alone.
The effects of SA16 on morphology of neurospheres were evaluated by quantifying the area occupied by the cells in culture plates, as well as the outgrowth of cellular processes.
The inventors then evaluated the effects of MP7, Alisertib and of their combination on CSC differentiation. The cells were incubated with […] MP7, alone or in combination with 1.5 μM Alisertib for seven days.

O=C(N[C@@H](COc1ccc2[nH]c(=O)[nH]c2c1)c1ccccc1)c1cccn(Cc2ccc(F)c(F)c2)c1=O [MP7, 1-(3,4-difluorobenzyl)-2-oxo-N-{(1R)-2-[(2-oxo-2,3-dihydro-1H-benzimidazol-5-yl)oxy]-1-phenylethyl}-1,2-dihydropyridine-3-carboxamide]
effect on U87MG cell proliferation (in words) (U87MG cells): did not show a significant inhibition of cell proliferation
effect on CSC proliferation (in words) [1]: slight effects on U87MG proliferation
area occupied by the neurospheres (CSC neurospheres): reduction in the area occupied by the neurospheres
